Measurements taken from patent publication US11873292B2, “Trans-indoline cyclopropylamine chemical compound, and method for preparation, pharmaceutical composition, and use thereof” (Shanghai Institute of Materia Medica, Chinese Academy of …, priority 2016, dated 2024).
Read-outs that look alike come from different tables or passages of the source.

What was measured:
Human recombinant LSD1 = Human recombinant LSD1 (Homo sapiens (Human), UniProt O60341); test: LSD1 in vitro activity assay (LANCE Ultra LSD1 Histone H3-Lysine 4 Demethylase Assay); type: biochemical; conditions: LSD1 inhibition
Human recombinant MAOA = Human recombinant MAOA (Homo sapiens (Human), UniProt P21397); test: MAOA in vitro activity experiment (MAO-Glo); type: biochemical
Sequence of Human recombinant MAOA (P21397 whole entry): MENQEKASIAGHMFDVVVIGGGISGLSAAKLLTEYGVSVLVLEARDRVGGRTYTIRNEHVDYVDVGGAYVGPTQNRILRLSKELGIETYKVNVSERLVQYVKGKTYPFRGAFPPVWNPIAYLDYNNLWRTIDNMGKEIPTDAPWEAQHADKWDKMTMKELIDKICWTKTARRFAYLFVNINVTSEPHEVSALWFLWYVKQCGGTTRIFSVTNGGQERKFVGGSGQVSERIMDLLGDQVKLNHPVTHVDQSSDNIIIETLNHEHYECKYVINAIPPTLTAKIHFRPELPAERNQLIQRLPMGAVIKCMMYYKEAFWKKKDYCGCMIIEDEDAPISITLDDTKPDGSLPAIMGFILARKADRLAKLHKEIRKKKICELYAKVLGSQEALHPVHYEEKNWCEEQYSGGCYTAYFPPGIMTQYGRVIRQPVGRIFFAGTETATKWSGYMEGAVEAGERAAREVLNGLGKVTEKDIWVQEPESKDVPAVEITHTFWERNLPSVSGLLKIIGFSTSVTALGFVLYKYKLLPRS

human recombinant MAOB = human recombinant MAOB (Homo sapiens (Human), UniProt P27338); test: MAOB in vitro activity experiment (MAO-Glo); type: biochemical
Sequence of human recombinant MAOB (P27338 whole entry): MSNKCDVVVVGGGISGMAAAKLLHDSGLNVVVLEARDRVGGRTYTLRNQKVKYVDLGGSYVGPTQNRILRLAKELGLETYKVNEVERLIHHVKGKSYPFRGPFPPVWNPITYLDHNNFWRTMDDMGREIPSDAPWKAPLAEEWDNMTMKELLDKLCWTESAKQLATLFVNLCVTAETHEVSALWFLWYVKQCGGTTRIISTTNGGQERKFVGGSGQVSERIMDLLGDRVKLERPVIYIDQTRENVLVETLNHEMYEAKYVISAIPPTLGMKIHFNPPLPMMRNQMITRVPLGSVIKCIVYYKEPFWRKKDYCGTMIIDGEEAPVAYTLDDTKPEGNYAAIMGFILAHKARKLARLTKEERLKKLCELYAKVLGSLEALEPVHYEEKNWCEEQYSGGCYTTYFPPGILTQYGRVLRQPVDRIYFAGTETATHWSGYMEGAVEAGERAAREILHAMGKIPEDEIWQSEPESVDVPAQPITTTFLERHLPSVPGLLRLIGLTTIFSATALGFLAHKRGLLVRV

[1] = system: Leukemia cell line MV4-11; test: Growth-inhibitory activity by MTS method; type: cell-based; conditions: Homo sapiens, MV4-11 cells
Text: MTS assay was used to detect the growth inhibitory effect of tested compounds on leukemia cell MV (4:11), the principle of which was that succinate dehydrogenase in mitochondria in living cells can reduce exogenous thiazole blue to insoluble Blue crystalline Formazan.
MATERIALS: Leukemia cell line MV4-11: pediatric acute lymphocytic leukemia, immunological double phenotype, AF4-MLL fusion t (4,11), is a cell growth inhibitory cell line of LSD1 inhibitor (Cancer cell. 2012, 17; 21(4): 473-487).
1. MV4-11 cells in the logarithmic growth phase were taken, accurately counted 16000 cells/mL, and the diluted cell solution was added to a 96-well plate at 90 μL per well.
2. Fresh medium was taken and sequentially added to a 96-well plate with cell fluid, 90 μL per well.
3. In the compound plate, the compound to be tested at a concentration of 10 mM and the positive compounds ORY-1001 and GSK2879552 were taken and subjected to a 3-fold concentration gradient dilution with DMSO, 8 points for each.
4. 2 μL of the diluted compound was separately added to a 96-well plate containing 98 μL of blank medium, and DMSO group was added with 2 μL of DMSO into 98 μL of blank medium, and mixed for use.
5. The compound homogeneously mixed with the medium was separately added to a 96-well plate in which cells were plated in triplicate, 20 μL per well, and well mixed. In the blank group, 200 μL of IMDM medium was added, and in the DMSO group, 180 μL of the cell-containing medium in DMSO diluted with the medium was added.
6. […]
7. After 10 days, MTS was added and the values were read after 2.5 h of incubation.

Row | Structure (SMILES) | IC50 (Human recombinant MAOA) [µM] | IC50 (human recombinant MAOB) [µM] | IC50 ([1]; 3 D, read-out: MTS 3 D) [µM] | IC50 ([1]; 10 D, read-out: MTS 10 D) [µM] | IC50 (Human recombinant LSD1) [µM] | melting point [°C]
1 | O=S(=O)(c1ccccc1)N1CCc2cc([C@@H]3C[C@H]3NC3CCNCC3)ccc21 (relative stereo) [Compound A15, trans-N-(4-piperidinyl)-2-(1-(phenylsulfonyl)indolin-5-yl)cyclopropylamine] | > 100 | > 100 | 3.4 ± 1.64 | 0.18 ± 0.49 | 0.0227 ± 0.00037 | 
2 | O=S(=O)(c1ccccc1)N1CCc2cc([C@@H]3C[C@H]3NCCC3CCNCC3)ccc21 (relative stereo) [Compound A16, trans-N-(4-piperidinylethyl)-2-(1-(phenylsulfonyl)indolin-5-yl)cyclopropylamine] | > 100 | > 100 | 8.25 ± 1.7 | 1.21 ± 0.4 |  | 
3 | O=S(=O)(c1ccccc1)N1CCc2cc([C@@H]3C[C@H]3NCC3CNC3)ccc21 (relative stereo) [Compound A17, trans-N-(azetidin-3-ylmethyl)-2-(1-(phenylsulfonyl)indolin-5-yl)cyclopropylamine] | 16.2 ± 0.31 | 9.22 ± 0.98 |  |  |  | 
4 | O=S(=O)(c1ccccc1)N1CCc2cc([C@@H]3C[C@H]3NC3CC4(CCNCC4)C3)ccc21 (relative stereo) [Compound A20, trans-N-(2-(1-(phenylsulfonyl)indolin-5-yl)cyclopropyl)-7-azaspiro[3.5]nonane-2-amine] | > 100 | > 100 |  |  |  | 
5 | CC1(CN[C@@H]2C[C@H]2c2ccc3c(c2)CCN3S(=O)(=O)c2ccccc2)CCNCC1 (relative stereo) [Compound A21, trans-N-((4-methylpiperidin-4-yl)methyl)-2-(1-(phenylsulfonyl)indolin-5-yl)cyclopropylamine] | > 100 | > 100 |  |  |  | 
6 | O=S(=O)(c1ccccc1)N1CCc2cc([C@@H]3C[C@H]3NCC3CCN(Cc4ccccc4)CC3)ccc21 (relative stereo) [Compound A24, trans-N-((1-benzylpiperidin-4-yl)methyl)-2-(1-(phenylsulfonyl)indolin-5-yl)cyclopropylamine] | 15.9 ± 2 | > 100 |  |  |  | 
7 | O=S(=O)(c1ccc(-c2ccccc2)cc1)N1CCc2cc([C@@H]3C[C@H]3NCC3CCNCC3)ccc21 (relative stereo) [Compound A32, Trans-2-(1-(biphenyl-4-ylsulfonyl)indolin-5-yl)-N-(piperidin-4-ylmethyl)cyclopropylamine] | > 100 | 89.4 ± 2.05 |  |  |  | 
8 | O=S(=O)(c1ccc2ccccc2c1)N1CCc2cc([C@@H]3C[C@H]3NCC3CCNCC3)ccc21 (relative stereo) [Compound A33, Trans-2-(1-(naphthalen-2-ylsulfonyl)indolin-5-yl)-N-(piperidin-4-ylmethyl)cyclopropylamine] | 35.5 ± 0.87 | 82 ± 1.39 |  |  |  | 
9 | O=S(=O)(c1cccc(C(F)(F)F)c1)N1CCc2cc([C@@H]3C[C@H]3NCC3CCNCC3)ccc21 (relative stereo) [Compound A35, trans-N-(piperidin-4-ylmethyl)-2-(1-(3-(trifluoromethyl)benzenesulfonyl)indolin-5-yl)cyclopropylamine] | 49.8 ± 20.9 | 86.2 ± 18.7 |  |  |  | 
10 | O=S(=O)(c1cccc(Cl)c1)N1CCc2cc([C@@H]3C[C@H]3NCC3CCNCC3)ccc21 (relative stereo) [Compound A38, trans-2-(1-(3-chlorobenzenesulfonyl)indolin-5-yl)-N-(piperidin-4-ylmethyl)cyclopropylamine] | 73.9 ± 1.34 | 40.9 ± 1.41 |  |  |  | 
11 | CCCS(=O)(=O)N1CCc2cc([C@@H]3C[C@H]3NCC3CCNCC3)ccc21 (relative stereo) [Compound A41, trans-N-(piperidin-4-ylmethyl)-2-(1-(propylsulfonyl)indolin-5-yl)cyclopropylamine] | > 100 | > 100 |  |  |  | 187 to 191
12 | COCCC(=O)N1CCc2cc([C@@H]3C[C@H]3NCC3CCNCC3)ccc21 (relative stereo) [Compound A56, Trans-3-methoxy-1-(5-(2-(piperidin-4-ylmethylamino)cyclopropyl)indolin-1-yl)propan-1-one] | > 100 | > 100 |  |  | 0.0269 ± 0.0221 | 
13 | O=C(C1CCCCC1)N1CCc2cc([C@@H]3C[C@H]3NCC3CCNCC3)ccc21 (relative stereo) [Compound A59, Trans-cyclohexyl (5-(2-(piperidin-4-ylmethylamino)cyclopropyl)indolin-1-yl)methanone] |  |  |  |  |  | 166 to 168
14 | O=S(=O)(c1ccccc1)N1CCc2cc(C3CC3NCc3c[nH]c4ccccc34)ccc21 (stereo not shown) [Compound A8] |  |  | 1.25 ± 0.51 | 0.6 ± 0.13 |  | 
15 | O=S(=O)(c1ccccc1)N1CCc2cc(C3CC3NCC3CCNCC3)ccc21 (stereo not drawn) [Compound A14, trans-N-(4-piperidinylmethylene)-2-(1-(phenylsulfonyl)indolin-5-yl)cyclopropylamine] |  |  | 7.91 ± 1.61 | 1.36 ± 0.92 |  | 
16 | NC1CCC(CNC2CC2c2ccc3c(c2)CCN3S(=O)(=O)c2ccccc2)CC1 (stereo not drawn) [Compound A18, trans-4-((2-(1-(phenylsulfonyl)indolin-5-yl)cyclopropylamino)methyl)cyclohexylamine] | 96.3 ± 2.05 |  |  |  |  | 
17 | NC1CCC(NC2CC2c2ccc3c(c2)CCN3S(=O)(=O)c2ccccc2)CC1 (stereo not drawn) [Compound A19, trans-N1-(2-(1-(phenylsulfonyl)indolin-5-yl)cyclopropyl)cyclohexane-1,4-diamine] |  |  | 8.55 ± 1.84 | 1.16 ± 0.26 |  | 
18 | O=C(O)c1ccc(CN2CCC(CN[C@@H]3C[C@H]3c3ccccc3)CC2)cc1 [GSK2879552, GSK-2879552, reference compound] | > 100 | > 100 | > 20 | 1.81 | 0.404 ± 0.0308 | 

Further lines, with some results ahead:

Row | IC50 (Human recombinant MAOA) [µM] | IC50 (human recombinant MAOB) [µM] | IC50 ([1]; 3 D, read-out: MTS 3 D) [µM] | IC50 ([1]; 10 D, read-out: MTS 10 D) [µM] | Structure (SMILES) | IC50 (Human recombinant LSD1) [µM] | melting point [°C]
19 | 38.6 ± 5.23 | > 100 |  |  | COc1cccc(S(=O)(=O)N2CCc3cc([C@@H]4C[C@H]4NCC4CCNCC4)ccc32)c1 (relative stereo) [Compound A39, trans-2-(1-(3-methoxybenzenesulfonyl)indolin-5-yl)-N-(piperidin-4-ylmethyl)cyclopropylamine] |  | 
20 | > 100 | > 100 |  |  | CS(=O)(=O)N1CCc2cc([C@@H]3C[C@H]3NCC3CCNCC3)ccc21 (relative stereo) [Compound A40, Trans-2-(1-(methylsulfonyl)indolin-5-yl)-N-(piperidin-4-ylmethyl)cyclopropylamine] |  | 
21 | 86.6 ± 1.05 | 3.14 ± 0.15 |  |  | O=S(=O)(N1CCc2cc([C@@H]3C[C@H]3NCC3CCNCC3)ccc21)C(F)(F)F (relative stereo) [Compound A42, trans-N-(piperidin-4-ylmethyl)-2-(1-(trifluoromethanesulfonyl)indolin-5-yl)cyclopropylamine] |  | 
22 | > 100 | > 100 |  |  | O=S(=O)(C1CCCCC1)N1CCc2cc([C@@H]3C[C@H]3NCC3CCNCC3)ccc21 (relative stereo) [Compound A43, trans-2-(1-(cyclohexylsulfonyl)indolin-5-yl)-N-(piperidin-4-ylmethyl)cyclopropylamine] |  | 
23 | > 100 | 32.9 ± 1.24 | > 20 | 4.14 ± 3.47 | O=C(c1ccccc1)N1CCc2cc([C@@H]3C[C@H]3NCC3CCNCC3)ccc21 (relative stereo) [Compound A45, trans-phenyl (5-(2-(piperidin-4-ylmethylamino)cyclopropyl)indolin-1-yl)methanone] |  | 
24 | > 100 | > 100 | > 20 | 3.23 ± 3.64 | O=C(Cc1ccccc1)N1CCc2cc([C@@H]3C[C@H]3NCC3CCNCC3)ccc21 (relative stereo) [Compound A49, Trans-2-phenyl-1-(5-(2-(piperidin-4-ylmethylamino)cyclopropyl)indolin-1-yl)ethanone] |  | 
25 | > 100 | > 100 |  |  | CCC(=O)N1CCc2cc([C@@H]3C[C@H]3NCC3CCNCC3)ccc21 (relative stereo) [Compound A53, Trans-1-(5-(2-(piperidin-4-ylmethylamino)cyclopropyl)indolin-1-yl)propan-1-one] |  | 
26 | > 100 | > 100 |  |  | CCCC(=O)N1CCc2cc([C@@H]3C[C@H]3NCC3CCNCC3)ccc21 (relative stereo) [Compound A54, Trans-1-(5-(2-(piperidin-4-ylmethylamino)cyclopropyl)indolin-1-yl)butan-1-one] |  | 
27 | > 100 | > 100 |  |  | CCCCC(=O)N1CCc2cc([C@@H]3C[C@H]3NCC3CCNCC3)ccc21 (relative stereo) [Compound A55, Trans-1-(5-(2-(piperidin-4-ylmethylamino)cyclopropyl)indolin-1-yl)pentan-1-one] |  | 
28 | > 100 | 70.7 ± 12.6 | > 20 | 1.23 ± 1.13 | CC(C)(C)C(=O)N1CCc2cc([C@@H]3C[C@H]3NCC3CCNCC3)ccc21 (relative stereo) [Compound A58, Trans-2,2-dimethyl-1-(5-(2-(piperidin-4-ylmethylamino)cyclopropyl)indolin-1-yl)propan-1-one] |  | 
